According to PubChem BioAssay (NCI):
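Briefly, cells in 96-well plates were exposed to five compound concentrations for 48 h, and endpoints were estimated by linear interpolation. GI50 is the concentration that inhibits growth by half. TGI denotes the concentration required for complete inhibition of growth.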

Columns and labels:
Assay in all cases: growth of human tumour cells (NCI), 48 h
[1] = system: 786-0 renal
[2] = system: A498 renal
[3] = system: A549 NSCLC
[4] = system: ACHN renal
[5] = system: BT-549 breast
[6] = system: CAKI-1 renal
[7] = system: CCRF-CEM leukemia
[8] = system: COLO 205 colon
[9] = system: DU-145 prostate
[10] = system: EKVX NSCLC
[11] = system: HCC-2998 colon
[12] = system: HCT-116 colon
[13] = system: HCT-15 colon
[14] = system: HL-60(TB) leukemia
[15] = system: HOP-62 NSCLC
[16] = system: HOP-92 NSCLC
[17] = system: HT29 colon
[18] = system: IGROV1 ovarian
[19] = system: K-562 leukemia
[20] = system: KM12 colon
[21] = system: LOX IMVI melanoma
[22] = system: M14 melanoma
[23] = system: MALME-3M melanoma
[24] = system: MCF7 breast
[25] = system: MDA-MB-231 breast
[26] = system: MDA-MB-435
[27] = system: MDA-MB-468 breast
[28] = system: MOLT-4 leukemia
[29] = system: NCI-H226 lung
[30] = system: NCI-H23 lung
[31] = system: NCI-H460 lung
[32] = system: NCI-H522 lung
[33] = system: NCI/ADR-RES ovarian
[34] = system: OVCAR-3 ovarian
[35] = system: OVCAR-4 ovarian
[36] = system: OVCAR-5 ovarian
[37] = system: OVCAR-8 ovarian
[38] = system: PC-3 prostate
[39] = system: RPMI-8226 leukemia
[40] = system: RXF 393 renal
[41] = system: SF-268 CNS
[42] = system: SF-295 CNS
[43] = system: SF-539 CNS
[44] = system: SK-MEL-2 melanoma
[45] = system: SK-MEL-28 melanoma
[46] = system: SK-MEL-5 melanoma
[47] = system: SK-OV-3 ovarian
[48] = system: SN12C renal
[49] = system: SNB-19 CNS
[50] = system: SNB-75 CNS
[51] = system: SR leukemia
[52] = system: SW-620 colon
[53] = system: T-47D breast
[54] = system: TK-10 renal
[55] = system: U251 CNS
[56] = system: UACC-257 melanoma
[57] = system: UACC-62 melanoma
[58] = system: UO-31 renal

## CC(C)N=C([Se])NC(=O)c1ccccc1
[1]
  GI50: 1.8 µM
  TGI: 3.25 µM
[2]
  GI50: 2.85 µM
  TGI: 8.02 µM
[3]
  GI50: 3.11 µM
  TGI: 34.8 µM
[4]
  GI50: 1.92 µM
  TGI: 3.41 µM
[5]
  GI50: 1.61 µM
  TGI: 3.55 µM
[6]
  GI50: 1.67 µM
  TGI: 3.04 µM
[7]
  GI50: 3.05 µM
  TGI: 10.8 µM
[8]
  GI50: 2.49 µM
  TGI: 6.46 µM
[9]
  GI50: 1.95 µM
  TGI: 3.6 µM
[10]
  GI50: 1.77 µM
  TGI: 3.32 µM
[11]
  GI50: 1.92 µM
  TGI: 3.67 µM
[12]
  GI50: 1.88 µM
  TGI: 3.49 µM
[13]
  GI50: 1.85 µM
  TGI: 3.63 µM
[14]
  GI50: 2.07 µM
  TGI: 5.37 µM
[15]
  GI50: 2.03 µM
  TGI: 5.19 µM
[16]
  GI50: 1.95 µM
  TGI: 4.36 µM
[17]
  GI50: 2.34 µM
  TGI: 5.99 µM
[18]
  GI50: 1.76 µM
  TGI: 3.49 µM
[19]
  GI50: 2.76 µM
  TGI: 8.45 µM
[20]
  GI50: 3 µM
  TGI: 8.39 µM
[21]
  GI50: 1.85 µM
  TGI: 3.94 µM
[22]
  GI50: 1.84 µM
  TGI: 3.65 µM
[23]
  GI50: 1.63 µM
  TGI: 3.09 µM
[24]
  GI50: 1.7 µM
  TGI: 3.66 µM
[25]
  GI50: 2.67 µM
  TGI: 6.49 µM
[26]
  GI50: 2.69 µM
  TGI: 8.5 µM
[27]
  GI50: 1.72 µM
  TGI: 3.61 µM
[28]
  GI50: 2.33 µM
  TGI: 6.07 µM
[29]
  GI50: 2.11 µM
  TGI: 5.94 µM
[30]
  GI50: 1.93 µM
  TGI: 4.13 µM
[31]
  GI50: 2.93 µM
  TGI: 11.6 µM
[32]
  GI50: 1.64 µM
  TGI: 3.17 µM
[33]
  GI50: 2.12 µM
  TGI: 4.89 µM
[34]
  GI50: 1.97 µM
  TGI: 3.57 µM
[35]
  GI50: 1.75 µM
  TGI: 3.14 µM
[36]
  GI50: 1.97 µM
  TGI: 3.72 µM
[37]
  GI50: 1.88 µM
  TGI: 3.56 µM
[38]
  GI50: 2.01 µM
  TGI: 4.37 µM
[39]
  GI50: 2.64 µM
  TGI: 7.83 µM
[40]
  GI50: 1.88 µM
  TGI: 3.68 µM
[41]
  GI50: 2.9 µM
  TGI: 8.27 µM
[42]
  GI50: 1.86 µM
  TGI: 5.21 µM
[43]
  GI50: 1.8 µM
  TGI: 3.21 µM
[44]
  GI50: 2.08 µM
  TGI: 4.88 µM
[45]
  GI50: 1.94 µM
  TGI: 3.62 µM
[46]
  GI50: 1.88 µM
  TGI: 3.67 µM
[47]
  GI50: 0.426 µM
  TGI: 1.3 µM
[48]
  GI50: 1.82 µM
  TGI: 3.29 µM
[49]
  GI50: 2.91 µM
  TGI: 10.8 µM
[50]
  GI50: 1.69 µM
  TGI: 3.41 µM
[51]
  GI50: 2.06 µM
  TGI: 5.23 µM
[52]
  GI50: 2.06 µM
  TGI: 4.63 µM
[53]
  GI50: 1.98 µM
  TGI: 4.52 µM
[54]
  GI50: 1.7 µM
  TGI: 3.17 µM
[55]
  GI50: 1.86 µM
  TGI: 3.51 µM
[56]
  GI50: 1.92 µM
  TGI: 4.06 µM
[57]
  GI50: 1.96 µM
  TGI: 4.07 µM
[58]
  GI50: 1.64 µM
  TGI: 3 µM
